The text below walks through data of patent US20220289724A1, “KIF18A INHIBITORS” (AMGEN INC., priority 2019, published 2022).

The structures appear in SMILES notation.

The target of the test is T1, Recombinant human KIF18A (1-467 His-tagged) protein (Homo sapiens, UniProt Q8NI77).
T1 construct: Recombinant human KIF18A (1-467 His-tagged) protein; His; made in house
T1 sequence (Q8NI77 1-467): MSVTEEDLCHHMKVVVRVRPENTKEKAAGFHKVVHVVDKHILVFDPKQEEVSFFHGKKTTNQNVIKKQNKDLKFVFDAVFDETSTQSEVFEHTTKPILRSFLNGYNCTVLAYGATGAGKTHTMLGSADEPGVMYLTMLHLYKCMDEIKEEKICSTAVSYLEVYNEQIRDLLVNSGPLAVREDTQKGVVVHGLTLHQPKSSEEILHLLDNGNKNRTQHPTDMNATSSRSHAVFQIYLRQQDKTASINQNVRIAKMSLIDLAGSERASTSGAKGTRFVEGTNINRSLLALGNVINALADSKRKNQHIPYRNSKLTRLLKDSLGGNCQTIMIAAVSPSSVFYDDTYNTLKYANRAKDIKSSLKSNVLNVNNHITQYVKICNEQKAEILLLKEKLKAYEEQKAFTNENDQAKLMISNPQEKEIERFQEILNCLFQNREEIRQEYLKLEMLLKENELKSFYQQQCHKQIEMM
T1 sequence (P02550 whole entry partner): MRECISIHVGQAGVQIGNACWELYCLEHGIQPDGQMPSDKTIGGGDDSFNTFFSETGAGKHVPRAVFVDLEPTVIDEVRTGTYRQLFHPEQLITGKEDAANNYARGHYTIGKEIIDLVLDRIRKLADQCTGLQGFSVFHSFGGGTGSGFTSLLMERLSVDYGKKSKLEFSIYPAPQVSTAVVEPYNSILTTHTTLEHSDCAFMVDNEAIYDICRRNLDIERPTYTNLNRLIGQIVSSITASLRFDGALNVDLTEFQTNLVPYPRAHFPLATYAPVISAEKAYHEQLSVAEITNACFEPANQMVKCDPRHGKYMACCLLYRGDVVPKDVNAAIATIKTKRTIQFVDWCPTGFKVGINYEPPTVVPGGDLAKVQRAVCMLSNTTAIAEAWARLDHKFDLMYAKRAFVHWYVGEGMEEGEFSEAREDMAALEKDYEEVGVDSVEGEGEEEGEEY
T1 sequence (P02554 whole entry partner): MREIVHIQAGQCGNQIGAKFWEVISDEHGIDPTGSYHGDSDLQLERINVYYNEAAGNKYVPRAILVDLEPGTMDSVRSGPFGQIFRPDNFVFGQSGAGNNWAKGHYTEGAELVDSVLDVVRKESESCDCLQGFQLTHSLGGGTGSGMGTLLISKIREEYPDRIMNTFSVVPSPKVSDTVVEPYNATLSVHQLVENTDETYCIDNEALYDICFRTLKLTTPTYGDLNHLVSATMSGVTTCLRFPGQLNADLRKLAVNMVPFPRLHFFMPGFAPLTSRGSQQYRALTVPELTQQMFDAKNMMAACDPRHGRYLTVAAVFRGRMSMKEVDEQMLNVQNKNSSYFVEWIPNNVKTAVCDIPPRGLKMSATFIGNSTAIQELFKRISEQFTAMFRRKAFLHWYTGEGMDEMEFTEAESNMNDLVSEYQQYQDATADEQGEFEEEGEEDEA
Description: KIF18A Enzyme Assay: microtubule-stimulated ATPase activity assay (ADP-Glo). It counts as biochemical. The following applies: KIF18A protein 30 nM, 30 μg/mL pig microtubules, ATP at Km 75 μM, ADP-Glo luminescence, RT. The source says: KIF18A Enzyme Assay: Microtubule-stimulated ATPase activity assay is used to measure KIF18A enzyme activity after treatment with compound. Compounds were 2-fold serially diluted in DMSO (Sigma Inc) over 22-point concentration range. Recombinant human KIF18A (1-467 His-tagged) protein was expressed using a baculovirus system and purified by affinity chromatography by Amgen Inc. Concentrations of KIF18A protein, microtubules (MT), and ATP in the reaction were optimized for standardized homogenous enzyme assay using ADP-Glorm Kinase/ATPase Assay Kit (Promega Inc). The assay measures ADP formed from the ATPase reaction. […] Concentration-response curve-fitting and IC50 determination was performed using Genedata Screener Software (Standard 15.0.1, Genedata Inc) with a four-parameter logistic regression fit model.
Table A provides data for compounds exemplified in the present application and priority document thereof, as representative compounds of the present invention, as follows: chemical name (as named by either ACD software or ChemDraw (Professional 15.0)) and biological data (IC50 in μM). Ex. […] refers to Example No.
A general note: ADP-Glo first removes unused ATP, then detects ADP through luciferase.
For the compound `CC(C)(C)[S@@](=N)(=O)c1cccc(NC(=O)c2ccc(NS(=O)(=O)CCO)cc2N2CCC3(CC2)CC3)c1` [Example 114-1, (R)-4-((2-hydroxyethyl)sulfonamido)-N-(3-(2-methylpropan-2-ylsulfonimidoyl)phenyl)-2-(6-azaspiro[2.5]octan-6-yl)benzamide], the IC50 turned out to be 194 nM.
With `C[C@@H]1CN(c2cc(NC(=O)c3ccc(NS(=O)(=O)CCO)cc3N3CCC4(CC3)CC4)ccc2F)CCO1` [Example 103-4, (R)-N-(4-fluoro-3-(2-methylmorpholino)phenyl)-4-((2-hydroxyethyl)sulfonamido)-2-(6-azaspiro[2.5]octan-6-yl)benzamide], the IC50 turned out to be 177 nM.
`CC(C)(CO)Nc1cccc(NC(=O)c2ccc(NS(=O)(=O)C3(C)CC3)cc2N2CCC3(CC2)CC3)c1` [Example 101-3, N-(3-((1-hydroxy-2-methylpropan-2-yl)amino)phenyl)-4-((1-methylcyclopropane)-1-sulfonamido)-2-(6-azaspiro[2.5]octan-6-yl)benzamide]: the IC50 was 115 nM.
For `CNC(=O)c1ccc(C(=O)Nc2cccc(S(=O)(=O)NC(C)(C)C)c2)c(N2CCC3(CC2)CC3)c1` [Example 111-1, N^1-(3-(N-(tert-butyl)sulfamoyl)phenyl)-N^4-methyl-2-(6-azaspiro[2.5]octan-6-yl)terephthalamide], the half-inhibitory concentration (IC50) stood at 132 nM.
Then `CC(C)(C)NS(=O)(=O)c1cccc(NC(=O)c2ccc(S(C)(=O)=O)cc2N2CCC3(CC2)CC3)c1` [Example 100-1, N-(3-(N-(tert-butyl)sulfamoyl)phenyl)-4-(methylsulfonyl)-2-(6-azaspiro[2.5]octan-6-yl)benzamide], with 61 nM; and `Cn1ccnc1-c1ccc(C(=O)Nc2cccc(S(=O)(=O)NC(C)(C)C)c2)c(N2CCC3(CC2)CC3)c1` [Example 109, N-(3-(N-(tert-butyl)sulfamoyl)phenyl)-4-(1-methyl-1H-imidazol-2-yl)-2-(6-azaspiro[2.5]octan-6-yl)benzamide], with 124 nM.
With `CC(C)(C)c1cccc(NC(=O)c2ccc(S(C)(=O)=O)cc2N2CCC3(CC2)CC3)c1` [Example 100-4, N-(3-(tert-butyl)phenyl)-4-(methylsulfonyl)-2-(6-azaspiro[2.5]octan-6-yl)benzamide], the IC50 worked out at 362 nM.
With `N=[S@@](=O)(c1cccc(NC(=O)c2ccc(NS(=O)(=O)CCO)cc2N2CCC3(CC2)CC3)c1)N1CCC1` (single isomer, unassigned) [Example 112-2], the IC50 worked out at 160 nM.
Take `CC(C)(C)NS(=O)(=O)c1cccc(NC(=O)c2ccc(S(=O)(=O)C3(C)COC3)cc2N2CCC3(CC2)CC3)c1` [Example 100, N-(3-(N-(tert-Butyl)sulfamoyl)phenyl)-4-((3-methyloxetan-3-yl)sulfonyl)-2-(6-azaspiro[2.5]octan-6-yl)benzamide]: the IC50 was 173 nM.
On to `CC(C)(C)NS(=O)(=O)c1cccc(NC(=O)c2ccc(N3CCCS3(=O)=O)cc2N2CCC3(CC2)CC3)c1` [Example 102-6, N-(3-(N-(tert-butyl)sulfamoyl)phenyl)-4-(1,1-dioxidoisothiazolidin-2-yl)-2-(6-azaspiro[2.5]octan-6-yl)benzamide], for which the IC50 is 45 nM.
For the compound `CC(C)(CO)Nc1cccc(NC(=O)c2ccc(S(=O)(=O)NC3(C)COC3)cc2N2CCC3(CC2)CC3)c1F` [Example 101-1, N-(2-fluoro-3-((1-hydroxy-2-methylpropan-2-yl)amino)phenyl)-4-(N-(3-methyloxetan-3-yl)sulfamoyl)-2-(6-azaspiro[2.5]octan-6-yl)benzamide], the IC50 came out at 66 nM.
On to `C[C@@H]1CN(c2cccc(NC(=O)c3ccc(NS(=O)(=O)CCO)cc3N3CCC4(CC3)CC4)c2)CCO1` [Example 103-1, (R)-4-((2-hydroxyethyl)sulfonamido)-N-(3-(2-methylmorpholino)phenyl)-2-(6-azaspiro[2.5]octan-6-yl)benzamide], for which the IC50 stood at 71 nM.
Take `CN(CCO)C(=O)c1ccc(C(=O)Nc2cccc(S(=O)(=O)NC(C)(C)C)c2)c(N2CCC3(CC2)CC3)c1` [Example 111-2, N^1-(3-(N-(tert-butyl)sulfamoyl)phenyl)-N^4-(2-hydroxyethyl)-N^4-methyl-2-(6-azaspiro[2.5]octan-6-yl)terephthalamide]: the 50% inhibitory concentration (IC50) stood at 201 nM.
Then `CC(C)(C)NS(=O)(=O)c1cccc(NC(=O)c2ccc(C3(O)COC3)cc2N2CCC3(CC2)CC3)c1` [Example 100-15, N-(3-(N-(tert-butyl)sulfamoyl)phenyl)-4-(3-hydroxyoxetan-3-yl)-2-(6-azaspiro[2.5]octan-6-yl)benzamide], with 88 nM.
Then `CS(=O)(=O)c1ccc(C(=O)Nc2cccc(N3CCOCC3)c2)c(N2CCC3(CC2)CC3)c1` [Example 100-10, 4-(methylsulfonyl)-N-(3-morpholinophenyl)-2-(6-azaspiro[2.5]octan-6-yl)benzamide], with 862 nM; and `CC(C)(C)NS(=O)(=O)c1cccc(NC(=O)c2ccc(S(=O)(=O)NC3COC3)cc2N2CCC3(CC2)CC3)c1` [Example 107-5, N-(3-(N-(tert-butyl)sulfamoyl)phenyl)-4-(N-(oxetan-3-yl)sulfamoyl)-2-(6-azaspiro[2.5]octan-6-yl)benzamide], with 60 nM.
For the compound `CC(C)(C)NS(=O)(=O)c1cccc(NC(=O)c2ccc([C@@](C)(O)CO)cc2N2CCC3(CC2)CC3)c1` (single isomer, unassigned) [Example 108-1], the IC50 was determined as 92 nM.
Then `CC(C)(C)NS(=O)(=O)c1cccc(NC(=O)c2ccc(NS(=O)(=O)C3CC3)cc2N2CCC3(CC2)CC3)c1` [Example 102-4, N-(3-(N-(tert-butyl)sulfamoyl)phenyl)-4-(cyclopropanesulfonamido)-2-(6-azaspiro[2.5]octan-6-yl)benzamide], with 30 nM; and `CC(C)(C)NS(=O)(=O)c1cccc(NC(=O)c2ccc(CS(=O)(=O)CCO)cc2N2CCC3(CC2)CC3)c1` [Example 100-12, N-(3-(N-(tert-butyl)sulfamoyl)phenyl)-4-(((2-hydroxyethyl)sulfonyl)methyl)-2-(6-azaspiro[2.5]octan-6-yl)benzamide], with 75 nM; and `C[C@@H](CO)S(=O)(=O)Nc1ccc(C(=O)Nc2cccc(S(=O)(=O)NC(C)(C)C)c2)c(N2CCC3(CC2)CC3)c1` (single isomer, unassigned) [Example 105-1], with 42 nM.
With `CN(C)S(=O)(=O)c1ccc(C(=O)Nc2cccc(S(=O)(=O)NC(C)(C)C)c2)c(N2CCC3(CC2)CC3)c1` [Example 107-3, N-(3-(N-(tert-butyl)sulfamoyl)phenyl)-4-(N,N-dimethylsulfamoyl)-2-(6-azaspiro[2.5]octan-6-yl)benzamide], the IC50 amounted to 70 nM.
Next, `CC(C)S(=O)(=O)Nc1ccc(C(=O)Nc2cccc(S(=O)(=O)NC(C)(C)C)c2)c(N2CCC3(CC2)CC3)c1` [Example 102-3, N-(3-(N-(tert-butyl)sulfamoyl)phenyl)-4-((1-methylethyl)sulfonamido)-2-(6-azaspiro[2.5]octan-6-yl)benzamide]: 26 nM; `CC(C)(C)NS(=O)(=O)c1cccc(NC(=O)c2ccc(CS(C)(=O)=O)cc2N2CCC3(CC2)CC3)c1` [Example 100-11, N-(3-(N-(tert-butyl)sulfamoyl)phenyl)-4-((methylsulfonyl)methyl)-2-(6-azaspiro[2.5]octan-6-yl)benzamide]: 51 nM; `CC(C)(C)NS(=O)(=O)c1cccc(NC(=O)c2ccc([C@](C)(O)CO)cc2N2CCC3(CC2)CC3)c1` (single isomer, unassigned) [Example 108-2]: 141 nM.
Next, `CC(C)(C)NS(=O)(=O)c1cccc(NC(=O)c2ccc(S(=O)(=O)NC(C)(C)C)cc2N2CCC3(CC2)CC3)c1` [Example 100-13, 4-(N-(tert-butyl)sulfamoyl)-N-(3-(N-(tert-butyl)sulfamoyl)phenyl)-2-(6-azaspiro[2.5]octan-6-yl)benzamide]: 76 nM; `CC(C)(C)NS(=O)(=O)c1cccc(NC(=O)c2ccc(S(=O)(=O)N3CCC3)cc2N2CCC3(CC2)CC3)c1` [Example 107, 4-(Azetidin-1-ylsulfonyl)-N-(3-(N-(tert-butyl)sulfamoyl)phenyl)-2-(6-azaspiro[2.5]octan-6-yl)benzamide]: 44 nM.
Next, `CC(C)(C)NS(=O)(=O)c1cccc(NC(=O)c2ccc(S(N)(=O)=O)cc2N2CCC3(CC2)CC3)c1` [Example 107-8, N-(3-(N-(tert-butyl)sulfamoyl)phenyl)-2-(6-azaspiro[2.5]octan-6-yl)-4-sulfamoylbenzamide]: 40 nM; `CC(C)c1cccc(NC(=O)c2ccc(S(C)(=O)=O)cc2N2CCC3(CC2)CC3)c1` [Example 100-2, N-(3-isopropylphenyl)-4-(methylsulfonyl)-2-(6-azaspiro[2.5]octan-6-yl)benzamide]: 94 nM; `CC(C)(C)NS(=O)(=O)c1cccc(NC(=O)c2ccc(S(=O)(=O)NC3(C)CC3)cc2N2CCC3(CC2)CC3)c1` [Example 107-7, N-(3-(N-(tert-butyl)sulfamoyl)phenyl)-4-(N-(1-methylcyclopropyl)sulfamoyl)-2-(6-azaspiro[2.5]octan-6-yl)benzamide]: 52 nM.
`CC(C)(CO)Nc1cccc(NC(=O)c2ccc(NS(=O)(=O)C3(C)CC3)cc2N2CCC3(CC2)CC3)c1F` [Example 101-2, N-(2-fluoro-3-((1-hydroxy-2-methylpropan-2-yl)amino)phenyl)-4-((1-methylcyclopropane)-1-sulfonamido)-2-(6-azaspiro[2.5]octan-6-yl)benzamide]: the IC50 amounted to 298 nM.

As usually defined, the IC50 is the concentration needed to halve the response being measured.
